In US5770575A, “Nipecotic acid derivatives as antithrombotic compounds” (Ortho Pharmaceutical Corporation, priority 1995, dated 1998):
Entries after “also recorded” stand apart in the source; their conditions may differ.

Tests used:
[1] = set-up: species or system mongrel dogs; conditions: dog, in vivo, iv
Description: (§1) Arterial blood samples (5-9 ml) were withdrawn into tubes containing 3.8% sodium citrate to prepare platelet rich plasma (PRP) and to determine effects on coagulation parameters: prothrombin time (PT) and activated partial thromboplastin time (APTT). Separate blood samples (1.5 ml) were withdrawn in EDTA to determine hematocrit and cell counts (platelets, RBC's and white cells). Template bleeding times were obtained from the buccal surface using a symplate incision devise and Whatman filter paper.
(§2) Aggregation of PRP was performed using a BioData aggregometer. Aggregation of whole blood used a Chronolog impedance aggregometer. PT and APTT were determined on either a BioData or ACL 3000+ coagulation analyser. Cells were counted with a Sysmex K-1000.
(§3) Compound 17 was solubilized in a small volume of dimethylformamide (DMF) and diluted with saline to a final concentration of 10% DMF. Compound 17 was administered by the intravenous route with a Harvard infusion pump. Doses of 0.3, 1, 3, and 10 mg/kg were given in a cumulative fashion to each animal. Each dose was administered over a 15 min interval at a constant rate of 0.33 ml/min. Data were obtained after each dose and 30 and 60 min following the end of drug administration.

GPIIb/IIIa = molecular target: T1, GPIIb/IIIa (Homo sapiens, UniProt P05106+P08514); assay: In vitro solid phase purified glycoprotein IIb/IIIa binding assay (biotinylated fibrinogen); conditions: Table I
T1 sequence (P08514 32-887 limits assumed): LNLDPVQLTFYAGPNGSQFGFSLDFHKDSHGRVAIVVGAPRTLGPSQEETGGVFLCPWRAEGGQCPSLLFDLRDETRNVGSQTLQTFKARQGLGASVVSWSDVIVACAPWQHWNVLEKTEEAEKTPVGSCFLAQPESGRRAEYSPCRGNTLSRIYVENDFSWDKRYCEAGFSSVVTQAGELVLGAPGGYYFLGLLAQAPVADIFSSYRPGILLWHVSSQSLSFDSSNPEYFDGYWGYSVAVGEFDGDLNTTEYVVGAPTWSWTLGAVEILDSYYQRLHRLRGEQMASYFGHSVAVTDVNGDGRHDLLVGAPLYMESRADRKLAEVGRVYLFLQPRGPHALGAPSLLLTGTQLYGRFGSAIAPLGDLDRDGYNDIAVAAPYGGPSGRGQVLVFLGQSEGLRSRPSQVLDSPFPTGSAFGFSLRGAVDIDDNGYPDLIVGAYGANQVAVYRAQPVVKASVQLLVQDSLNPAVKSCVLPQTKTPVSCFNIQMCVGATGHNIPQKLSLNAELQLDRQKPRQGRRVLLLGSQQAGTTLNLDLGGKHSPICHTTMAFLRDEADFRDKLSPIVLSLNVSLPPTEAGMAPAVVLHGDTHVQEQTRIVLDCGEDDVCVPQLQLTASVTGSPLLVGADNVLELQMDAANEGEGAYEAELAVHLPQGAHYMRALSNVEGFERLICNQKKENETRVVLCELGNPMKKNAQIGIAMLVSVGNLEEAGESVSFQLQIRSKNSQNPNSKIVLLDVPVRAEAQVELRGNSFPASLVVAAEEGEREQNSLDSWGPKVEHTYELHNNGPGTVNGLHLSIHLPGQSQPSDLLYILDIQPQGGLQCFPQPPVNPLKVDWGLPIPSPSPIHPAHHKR
T1 sequence (P05106 27-788): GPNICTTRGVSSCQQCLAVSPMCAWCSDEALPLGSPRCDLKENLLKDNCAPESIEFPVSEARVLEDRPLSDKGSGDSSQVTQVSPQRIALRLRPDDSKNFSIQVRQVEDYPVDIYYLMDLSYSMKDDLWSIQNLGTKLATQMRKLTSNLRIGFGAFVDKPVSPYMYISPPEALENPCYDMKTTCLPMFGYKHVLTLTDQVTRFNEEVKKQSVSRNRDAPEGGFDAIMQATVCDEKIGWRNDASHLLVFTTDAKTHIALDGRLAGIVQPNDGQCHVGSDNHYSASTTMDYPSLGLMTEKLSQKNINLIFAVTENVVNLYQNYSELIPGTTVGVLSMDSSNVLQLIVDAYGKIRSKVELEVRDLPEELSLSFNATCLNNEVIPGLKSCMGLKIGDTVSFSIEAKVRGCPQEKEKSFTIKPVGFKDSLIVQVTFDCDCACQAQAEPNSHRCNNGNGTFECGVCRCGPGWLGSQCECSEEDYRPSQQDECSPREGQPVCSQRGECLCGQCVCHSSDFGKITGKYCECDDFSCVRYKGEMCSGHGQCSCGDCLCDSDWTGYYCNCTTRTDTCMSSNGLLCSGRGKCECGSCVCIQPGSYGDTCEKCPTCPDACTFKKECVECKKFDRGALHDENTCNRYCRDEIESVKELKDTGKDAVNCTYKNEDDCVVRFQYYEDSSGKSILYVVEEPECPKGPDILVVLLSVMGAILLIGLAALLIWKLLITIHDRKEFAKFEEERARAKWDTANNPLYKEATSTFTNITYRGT
Text: The compounds of the present invention interrupt binding of fibrinogen to platelet glycoprotein IIb/IIIa (GPIIb/IIIa) and thereby inhibit platelet aggregation. […] Because the final, common pathway in normal platelet aggregation is the binding of fibrinogen to activated, exposed GPIIb/IIIa, inhibition of this binding represents a plausible antithrombotic approach. The receptor is activated by stimuli such as ADP, collagen, and thrombin, exposing binding domains to two different peptide regions of fibrinogen: α-chain Arg-Gly-Asp (RGD) and γ-chain 400-411.
IN VITRO SOLID PHASE PURIFIED GLYCOPROTEIN IIB/IIIA BINDING ASSAY.
The plate is covered and incubated overnight at 4° C. The GPIIb/IIa solution is discarded and 150 μl of 5% BSA is added and incubated at RT for 1-3 h. The plate is washed extensively with modified Tyrodes buffer. Biotinylated fibrinogen (25 μl/well) at 2× final concentration is added to the wells that contain the test compounds (25 μl/well) at 2× final concentration. The plate is covered and incubated at RT for 2-4 h. Twenty minutes prior to incubation completion, one drop of Reagent A (Vecta Stain ABC Horse Radish Peroxidase kit, Vector Laboratories, Inc.) and one drop Reagent B are added with mixing to 5 mL modified Tyrodes buffer mix and let stand. The ligand solution is discarded and the plate washed (5×200 μl/well) with modified Tyrodes buffer. Vecta Stain HRP-Biotin-Avidin reagent (50 μl/well, as prepared above) is added and incubated at RT for 15 min. The Vecta Stain solution is discarded and the wells washed (5×200 μl/well) with modified Tyrodes buffer. […] The absorbance is read at 490 nm.

platelet aggregation = assay: Ex vivo dog study: platelet aggregation and ATP release in whole blood and PRP; set-up: species or system mongrel dogs
Description: Adult mongrel dogs (8-13 kg) were anesthetized with sodium pentobarbital (35 mg/kg, i.v.) and artificially respired. Arterial blood pressure and heart rate were measured using a Millar catheter-tip pressure transducer inserted in a femoral artery. Another Millar transducer was placed in the left ventricle (LV) via a carotid artery to measure LV end diastolic pressure and indices of myocardial contractility. A lead II electrocardiogram was recorded from limb electrodes. Catheters were placed in a femoral artery and vein to sample blood and infuse drugs, respectively. Responses were continuously monitored using a Modular Instruments data aquisition system.
as §1, §2, §3

gel-filtered platelets = assay: In vitro inhibition of thrombin-induced gel-filtered platelet aggregation assay; assay type: cell-based; conditions: *Indicates IC50, read-out: Pl. Aggr. IC50
Description: IN VITRO INHIBITION OF THROMBIN-INDUCED GEL-FILTERED PLATELET AGGREGATION ASSAY.
The percentage of platelet aggregation is calculated as an increase in light transmission of compound treated platelet concentrate vs. control treated platelet concentrate. Blood is obtained from drug free, normal donors into tubes containing 0.13M sodium citrate. Platelet rich plasma (PRP) is collected by centrifugation of whole blood at 200×g for 10 min at 25° C. The PRP (5 mL) is gel filtered through Sepharose 2B (bed volume 50 mL), and the platelet count is adjusted to 2×10^7platelets per sample. The following constituents are added to a siliconized cuvette: concentrated platelet filtrate and Tyrode's buffer (0.1 4M NaCl, 0.0027M KCl, 0.01 2M NaHCO3, 0.76 mM Na2 HPO4, 0.0055M glucose, 2 mg/mL BSA and 5.0 mM HEPES @ pH 7.4) in an amount equal to 350 μl, 50 μl of 20 mM calcium and 50 μl of the test compound. Aggregation is monitored in a BIODATA aggregometerforthe 3 min following the addition of agonist (thrombin 50 μl of 1 unit/mL).

## O=C(O)CCNC(=O)C1CCCN(C(=O)CCC2CCNCC2)C1 (stereo not drawn) [Compound 17, N-[3-(4-Piperidinepropionyl)]-Nip-β-Ala-OH]
[1]
  bleeding time at the higher doses: increases in bleeding time at the higher doses
  coagulation (PT or APTT): No effects on coagulation
  platelet, white and RBC counts: unchanged at any dose
GPIIb/IIIa
  IC50: 3 nM
Platelet aggregation; PRP and whole blood, post treatment
  platelet function began to recover: 30 to 60 min
Platelet aggregation; PRP, doses of 3.0 mg/kg and above, iv
  Gamma thrombin induced aggregation of PRP: inhibited at doses of 3.0 mg/kg and above
Platelet aggregation; PRP, marked activity at 0.3 mg/kg iv
  collagen stimulated platelet aggregation, PRP: marked activity at 0.3 mg/kg
Platelet aggregation; iv
  duration of drug action / antiaggregatory effect: relatively short duration of drug action
Platelet aggregation; iv, 0.3-10 mg/kg cumulative
  ex vivo platelet aggregation responses: marked inhibition of ex vivo platelet aggregation responses; also recorded: broadly effective inhibitor of platelet aggregation ex vivo
Platelet aggregation; whole blood, 10 mg/kg iv
  collagen stimulated platelet ATP release: marked inhibition
Platelet aggregation; whole blood, doses of 0.3-10 mg/kg iv
  collagen-stimulated aggregation, whole blood: inhibited
gel-filtered platelets
  IC50: 130 nM
